Measurements reported in patent US9630929B2, “Benzenesulfonamide compounds and their use as therapeutic agents” (XENON PHARMACEUTICALS INC., priority 2011, dated 2017).
Read-outs that look alike come from different tables or passages of the source.

Assays:
Type in all cases: cell-based
[1] = biological target: NaV1.5 (Homo sapiens (Human), UniProt Q14524); assay: Patch voltage clamp electrophysiology (EP), affinity for the inactivated state of Nav1.5
Experimental: Patch voltage clamp electrophysiology allows for the direct measurement and quantification of block of voltage-gated sodium channels (Nav's), and allows the determination of the time- and voltage-dependence of block which has been interpreted as differential binding to the resting, open, and inactivated states of the sodium channel (Hille, B., Journal of General Physiology (1977), 69: 497-515).
(§1) The following patch voltage clamp electrophysiology studies were performed on representative compounds of the invention using human embryonic kidney cells (HEK), permanently transfected with an expression vector containing the full-length cDNA coding for the desired human sodium channel α-subunit, grown in culture media containing 10% FBS, 1% PSG, and 0.5 mg/mL G418 at 37° C. with 5% CO2. […] Nav1.7 and Nav1.5 cDNAs (NM_002977 and AC137587; SCN5A, respectively) were stably expressed in HEK-293 cells. The β1 subunit was coexpressed only in the Nav1.7 cell line.
(§2) Sodium currents were measured using the patch clamp technique in the whole-cell configuration using either a PatchXpress automated voltage clamp or manually using an Axopatch 200B (Axon Instruments) or Model 2400 (A-M systems) amplifier. […] The pipette was filled with a solution comprised of: 5 mM NaCl, 10 mM CsCl, 120 mM CsF, 0.1 mM CaCl2, 2 mM MgCl2, 10 mM HEPES, 10 mM EGTA; and adjusted to pH 7.2 with CsOH. The external solution had the following composition: 140 mM NaCl, 5 mM KCl, 2 mM CaCl2, 1 mM MgCl2, 10 mM HEPES; and adjusted to pH 7.4 with NaOH. In some studies, the external sodium was reduced by equimolar replacement with choline. Osmolarity in the CsF internal and NaCl external solutions was adjusted to 300 mOsm/kg and 310 mOsm/kg with glucose, respectively. All recordings were performed at ambient temperature in a bath chamber with a volume of 150 μL. Control sodium currents were measured in 0.5% DMSO. Controls and representative compounds of the invention were applied to the recording chamber through a 4-pinch or 8-pinch valve bath perfusion system manufactured by ALA Scientific Instruments.
Currents were recorded at 40 kHz sampling frequency, filtered at […], and stored using a Digidata-1322A analogue/digital interface with the pClamp software (Axon Instruments). Series resistance compensation was applied (60-80%). […] All statistics in this study are given as mean±SD.
(§3) The membrane potential was maintained at a voltage where inactivation of the channel is complete (which was −60 mV for both Nav1.7 and Nav1.5). The voltage is then stepped back to a very negative (Vhold=−150 mV) voltage for 20 ms and then a test pulse is applied to quantify the compound block. […] The percent decrease in sodium current following wash-on of compound was taken as the percent block of sodium channels.
(§4) The Example numbers provided in Table 1 and Table 2 correspond to the Examples herein: […]

[2] = biological target: T1, NaV1.7 (Homo sapiens (Human), UniProt Q15858); assay: Patch voltage clamp electrophysiology (EP), affinity for the inactivated state of Nav1.7; details: HEK-293 cells expressing human Nav1.7 with β1 subunit
Experimental: as §1, §2
Series resistance compensation was applied (60-80%). […] All statistics in this study are given as mean±SD.
as §3, §4

[3] = biological target: T1, NaV1.7; assay: NaV flux assay, inhibition of NaV1.7; details: NaV flux data, included when EP data is not available
[4] = HEK-293 cells expressing human Nav1.5, read-out: NaV1.5 IC50
[5] = HEK-293 cells expressing human Nav1.5, read-out: NaV1.5 IC50(μM) (class)

T1 sequence (Q15858 other isoform, or with tags, fused parts or gaps): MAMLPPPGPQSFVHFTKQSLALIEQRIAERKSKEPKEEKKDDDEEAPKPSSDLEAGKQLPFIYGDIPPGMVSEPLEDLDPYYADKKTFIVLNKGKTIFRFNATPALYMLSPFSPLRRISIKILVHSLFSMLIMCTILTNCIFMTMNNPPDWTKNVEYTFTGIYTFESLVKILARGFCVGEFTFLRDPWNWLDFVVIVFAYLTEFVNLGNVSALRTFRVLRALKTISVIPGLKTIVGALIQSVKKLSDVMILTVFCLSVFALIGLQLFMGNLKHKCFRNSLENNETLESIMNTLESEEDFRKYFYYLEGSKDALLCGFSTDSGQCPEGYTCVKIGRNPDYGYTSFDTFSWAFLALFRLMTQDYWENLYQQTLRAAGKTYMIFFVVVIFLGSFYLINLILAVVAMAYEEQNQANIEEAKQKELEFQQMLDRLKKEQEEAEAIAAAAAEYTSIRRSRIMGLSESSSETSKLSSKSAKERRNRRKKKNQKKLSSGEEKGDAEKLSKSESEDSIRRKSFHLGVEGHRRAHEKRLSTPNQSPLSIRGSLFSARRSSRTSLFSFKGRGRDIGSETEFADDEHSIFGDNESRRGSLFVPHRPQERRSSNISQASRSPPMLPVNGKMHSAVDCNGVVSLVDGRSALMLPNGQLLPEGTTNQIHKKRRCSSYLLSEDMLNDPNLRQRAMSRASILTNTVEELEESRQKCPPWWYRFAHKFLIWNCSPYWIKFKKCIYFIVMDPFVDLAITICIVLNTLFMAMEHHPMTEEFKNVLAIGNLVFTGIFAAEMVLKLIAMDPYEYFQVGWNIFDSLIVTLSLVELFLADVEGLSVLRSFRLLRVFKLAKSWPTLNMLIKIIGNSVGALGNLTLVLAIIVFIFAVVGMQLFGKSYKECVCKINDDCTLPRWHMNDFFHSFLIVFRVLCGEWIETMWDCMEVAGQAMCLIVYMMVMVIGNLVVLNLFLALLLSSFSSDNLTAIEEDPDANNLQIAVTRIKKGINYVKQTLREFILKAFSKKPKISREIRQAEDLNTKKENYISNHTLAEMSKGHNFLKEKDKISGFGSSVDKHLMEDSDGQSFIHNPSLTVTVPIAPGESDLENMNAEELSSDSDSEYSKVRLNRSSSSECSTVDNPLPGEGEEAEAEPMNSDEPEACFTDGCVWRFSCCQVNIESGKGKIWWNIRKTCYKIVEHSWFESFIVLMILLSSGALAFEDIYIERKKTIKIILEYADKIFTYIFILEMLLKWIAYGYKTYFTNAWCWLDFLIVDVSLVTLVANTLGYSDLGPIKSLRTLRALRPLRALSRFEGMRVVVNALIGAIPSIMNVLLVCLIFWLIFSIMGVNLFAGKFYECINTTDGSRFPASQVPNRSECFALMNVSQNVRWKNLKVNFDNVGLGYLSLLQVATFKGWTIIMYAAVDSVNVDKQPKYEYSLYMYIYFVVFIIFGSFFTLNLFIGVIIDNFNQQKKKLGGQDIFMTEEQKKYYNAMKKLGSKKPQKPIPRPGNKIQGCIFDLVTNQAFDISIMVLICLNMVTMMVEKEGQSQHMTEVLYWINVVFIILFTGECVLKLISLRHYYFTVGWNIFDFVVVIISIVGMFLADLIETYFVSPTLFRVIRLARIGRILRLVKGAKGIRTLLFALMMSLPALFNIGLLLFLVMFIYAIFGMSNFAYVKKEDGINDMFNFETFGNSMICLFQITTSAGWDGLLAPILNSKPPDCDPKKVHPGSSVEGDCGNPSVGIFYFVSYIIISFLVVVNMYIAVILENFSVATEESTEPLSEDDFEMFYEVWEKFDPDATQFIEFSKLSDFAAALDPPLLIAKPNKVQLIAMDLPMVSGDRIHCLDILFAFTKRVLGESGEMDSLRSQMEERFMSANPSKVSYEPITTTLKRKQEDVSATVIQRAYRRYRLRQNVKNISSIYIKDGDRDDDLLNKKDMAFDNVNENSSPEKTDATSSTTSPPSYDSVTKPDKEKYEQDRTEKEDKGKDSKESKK
T1 sequence (Q07699 19-218 partner): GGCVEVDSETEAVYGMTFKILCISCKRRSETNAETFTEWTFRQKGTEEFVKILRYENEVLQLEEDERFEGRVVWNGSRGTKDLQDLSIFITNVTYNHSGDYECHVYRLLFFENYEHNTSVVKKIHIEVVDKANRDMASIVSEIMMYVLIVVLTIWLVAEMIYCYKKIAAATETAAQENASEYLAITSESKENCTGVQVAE
NaV1.5, sequence (Q14524 whole entry): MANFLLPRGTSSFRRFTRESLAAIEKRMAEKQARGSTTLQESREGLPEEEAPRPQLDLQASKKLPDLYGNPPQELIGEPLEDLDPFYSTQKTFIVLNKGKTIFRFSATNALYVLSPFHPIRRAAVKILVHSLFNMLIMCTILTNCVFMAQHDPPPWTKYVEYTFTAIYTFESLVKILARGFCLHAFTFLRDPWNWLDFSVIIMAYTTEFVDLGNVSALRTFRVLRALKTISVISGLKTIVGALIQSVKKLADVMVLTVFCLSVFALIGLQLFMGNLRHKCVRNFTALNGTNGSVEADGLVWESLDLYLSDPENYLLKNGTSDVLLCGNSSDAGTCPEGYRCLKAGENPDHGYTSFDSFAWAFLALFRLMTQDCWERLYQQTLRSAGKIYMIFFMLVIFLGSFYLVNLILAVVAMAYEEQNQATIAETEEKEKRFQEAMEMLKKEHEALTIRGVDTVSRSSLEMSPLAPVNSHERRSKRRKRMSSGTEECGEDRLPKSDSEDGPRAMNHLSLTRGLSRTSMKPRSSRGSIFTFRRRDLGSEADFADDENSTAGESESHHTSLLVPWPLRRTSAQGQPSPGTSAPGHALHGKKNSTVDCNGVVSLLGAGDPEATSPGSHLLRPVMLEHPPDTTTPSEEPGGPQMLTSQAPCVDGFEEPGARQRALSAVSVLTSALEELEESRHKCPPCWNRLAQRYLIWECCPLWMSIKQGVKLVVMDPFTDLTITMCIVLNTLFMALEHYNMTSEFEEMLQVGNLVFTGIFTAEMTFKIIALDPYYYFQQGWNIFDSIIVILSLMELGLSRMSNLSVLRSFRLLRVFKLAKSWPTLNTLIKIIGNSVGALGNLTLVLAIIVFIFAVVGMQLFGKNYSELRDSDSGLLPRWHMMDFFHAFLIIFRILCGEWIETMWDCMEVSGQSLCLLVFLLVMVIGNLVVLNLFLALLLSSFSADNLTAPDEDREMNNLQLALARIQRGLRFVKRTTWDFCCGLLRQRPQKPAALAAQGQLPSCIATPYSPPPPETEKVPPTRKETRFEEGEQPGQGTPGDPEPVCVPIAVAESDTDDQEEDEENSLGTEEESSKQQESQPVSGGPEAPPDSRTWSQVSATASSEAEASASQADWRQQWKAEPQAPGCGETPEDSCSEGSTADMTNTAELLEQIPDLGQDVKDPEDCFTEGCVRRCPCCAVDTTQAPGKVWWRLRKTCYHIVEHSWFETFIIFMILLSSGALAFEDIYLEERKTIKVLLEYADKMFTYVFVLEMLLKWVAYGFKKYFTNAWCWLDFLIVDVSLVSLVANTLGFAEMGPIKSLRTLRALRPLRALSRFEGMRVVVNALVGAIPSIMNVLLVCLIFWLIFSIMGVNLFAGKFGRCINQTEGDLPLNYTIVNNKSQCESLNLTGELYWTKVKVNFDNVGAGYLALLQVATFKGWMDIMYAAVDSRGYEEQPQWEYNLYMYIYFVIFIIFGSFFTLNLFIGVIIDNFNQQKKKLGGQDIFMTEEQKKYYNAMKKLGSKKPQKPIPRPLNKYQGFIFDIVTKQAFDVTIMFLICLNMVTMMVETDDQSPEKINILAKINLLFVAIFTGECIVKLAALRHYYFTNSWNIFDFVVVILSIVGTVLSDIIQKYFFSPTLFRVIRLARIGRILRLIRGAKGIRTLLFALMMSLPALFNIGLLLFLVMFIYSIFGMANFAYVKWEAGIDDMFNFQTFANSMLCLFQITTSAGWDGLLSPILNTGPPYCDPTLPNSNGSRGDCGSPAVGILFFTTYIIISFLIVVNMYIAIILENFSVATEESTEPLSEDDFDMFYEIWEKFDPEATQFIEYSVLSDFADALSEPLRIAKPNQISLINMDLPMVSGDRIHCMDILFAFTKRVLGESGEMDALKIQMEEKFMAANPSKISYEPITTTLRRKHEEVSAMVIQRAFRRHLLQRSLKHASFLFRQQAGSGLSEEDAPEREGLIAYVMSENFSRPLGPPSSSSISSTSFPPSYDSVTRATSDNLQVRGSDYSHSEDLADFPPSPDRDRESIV

For `O=S(=O)(Nc1ncns1)c1cc(F)c(OC[C@@H]2CNCC[C@H]2c2ccc(F)cc2)cc1F` (relative stereo) [Example 45, 2,5-difluoro-4-((trans-4-(4-fluorophenyl)piperidin-3-yl)methoxy)-N-(1,2,4-thiadiazol-5-yl)benzenesulfonamide], the IC50 [1, 4] was over 10 µM, the IC50 [1, 5] was over 10 µM and the IC50 ([2]; read-out: NaV1.7 (IC50 class)) was under 100 nM. It also gave an IC50 ([2]; read-out: NaV1.7 IC50) of 6.8 nM.
Compound `N#Cc1cc(S(=O)(=O)Nc2ncns2)ccc1OC[C@@H]1CNCC[C@H]1c1ccc(Cl)cc1` (relative stereo) [Example 58, 4-((trans-4-(4-chlorophenyl)piperidin-3-yl)methoxy)-3-cyano-N-(1,2,4-thiadiazol-5-yl)benzenesulfonamide] has an IC50 [1, 4] of over 10 µM, an IC50 [1, 5] of over 10 µM and an IC50 ([2]; read-out: NaV1.7 (IC50 class)) of under 100 nM. The IC50 ([2]; read-out: NaV1.7 IC50) was 3.3 nM.
`O=S(=O)(Nc1ncns1)c1cc(F)c(OC[C@@H]2CCCC[C@H]2c2ccc(F)cc2)cc1F` (relative stereo) [Example 68, 2,5-difluoro-4-((trans-2-(4-fluorophenyl)cyclohexyl)methoxy)-N-(1,2,4-thiadiazol-5-yl)benzenesulfonamide] showed an IC50 ([2]; read-out: NaV1.7 (IC50 class)) of 100 to 1000 nM and an IC50 ([2]; read-out: NaV1.7 IC50) of 280 nM.
`CC(C)(C)OC(=O)N1CC[C@@H](c2ccc(Cl)cc2)[C@H](COc2cc(F)c(S(=O)(=O)Nc3ncns3)cc2F)C1` (relative stereo) [Example 69, trans-tert-butyl 3-((4-(N-(1,2,4-thiadiazol-5-yl)sulfamoyl)-2,5-difluorophenoxy)methyl)-4-(4-chlorophenyl)piperidine-1-carboxylate] was tested, and the IC50 ([2]; read-out: NaV1.7 (IC50 class)) was 100 to 1000 nM and the IC50 ([2]; read-out: NaV1.7 IC50) was 164 nM.
`Cn1cns/c1=N/S(=O)(=O)c1cc(F)c(OC[C@@H]2CNCC[C@H]2c2ccc(Cl)cc2)cc1F` (relative stereo) [Example 78, (E)-4-((trans-4-(4-chlorophenyl)piperidin-3-yl)methoxy)-2,5-difluoro-N-(4-methyl-1,2,4-thiadiazol-5(4H)-ylidene)benzenesulfonamide] was tested, and the IC50 [3] was 4080 nM.
In the case of `O=S(=O)(Nc1ncns1)c1cc(F)c(OC[C@@H]2CN(CCF)CC[C@H]2c2ccc(Cl)cc2)cc1F` (relative stereo) [Example 80, 4-((trans-4-(4-chlorophenyl)-1-(2-fluoroethyl)piperidin-3-yl)methoxy)-2,5-difluoro-N-(1,2,4-thiadiazol-5-yl)benzenesulfonamide], the IC50 ([2]; read-out: NaV1.7 (IC50 class)) is reported as under 100 nM and the IC50 ([2]; read-out: NaV1.7 IC50) is reported as 93.7 nM.
`O=S(=O)(Nc1ncns1)c1cc(F)c(OC[C@@H]2CNCC[C@H]2c2ccc(Cl)cc2)c(F)c1` (relative stereo) [Example 81, 4-((trans-4-(4-chlorophenyl)piperidin-3-yl)methoxy)-3,5-difluoro-N-(1,2,4-thiadiazol-5-yl)benzenesulfonamide] gave an IC50 [3] of 2320 nM.
`O=S(=O)(Nc1ncns1)c1cc(F)c(OC[C@@H]2CCNC[C@H]2c2ccc(F)cc2)cc1F` (relative stereo) [Example 82, 2,5-difluoro-4-((trans-3-(4-fluorophenyl)piperidin-4-yl)methoxy)-N-(1,2,4-thiadiazol-5-yl)benzenesulfonamide] showed an IC50 ([2]; read-out: NaV1.7 (IC50 class)) of under 100 nM and an IC50 ([2]; read-out: NaV1.7 IC50) of 31.7 nM.
In the case of `O=S(=O)(Nc1ncns1)c1cc(F)c(OC[C@@H]2CN(CC(F)F)CC[C@H]2c2ccc(Cl)cc2)cc1F` (relative stereo) [Example 83, 4-((trans-4-(4-chlorophenyl)-1-(2,2-difluoroethyl)piperidin-3-yl)methoxy)-2,5-difluoro-N-(1,2,4-thiadiazol-5-yl)benzenesulfonamide], the IC50 ([2]; read-out: NaV1.7 (IC50 class)) is reported as under 100 nM and the IC50 ([2]; read-out: NaV1.7 IC50) is reported as 38.1 nM.
`CC(C)NS(=O)(=O)c1ccc(OC[C@@H]2CNCC[C@H]2c2ccc(Cl)cc2)c(C#N)c1` (relative stereo) [Example 90, 4-((trans-4-(4-chlorophenyl)piperidin-3-yl)methoxy)-3-cyano-N-isopropylbenzenesulfonamide] was tested, and the IC50 [3] was over 10000 nM.
In the case of `N#Cc1cc(S(=O)(=O)NC2(C#N)CC2)ccc1OC[C@@H]1CNCC[C@H]1c1ccc(Cl)cc1` (relative stereo) [Example 91, 4-((trans-4-(4-chlorophenyl)piperidin-3-yl)methoxy)-3-cyano-N-(1-cyanocyclopropyl)benzenesulfonamide], the IC50 [3] is reported as over 10000 nM.
With `N#Cc1cc(S(=O)(=O)NCC(F)(F)F)ccc1OC[C@@H]1CNCC[C@H]1c1ccc(Cl)cc1` (relative stereo) [Example 93, 4-((trans-4-(4-chlorophenyl)piperidin-3-yl)methoxy)-3-cyano-N-(2,2,2-trifluoroethyl)benzenesulfonamide] the IC50 [3] was over 10000 nM.
With `NS(=O)(=O)c1cc(F)c(OC[C@@H]2CNCC[C@H]2c2ccc(Cl)cc2)cc1F` (relative stereo) [Example 95, 4-((trans-4-(4-chlorophenyl)piperidin-3-yl)methoxy)-2,5-difluorobenzenesulfonamide] the IC50 [3] was over 10000 nM.
`O=C(NS(=O)(=O)c1cc(F)c(OC[C@@H]2CNCC[C@H]2c2ccc(Cl)cc2)cc1F)c1ccccn1` (relative stereo) [Example 99, N-((4-((trans-4-(4-chlorophenyl)piperidin-3-yl)methoxy)-2,5-difluorophenyl)sulfonyl)picolinamide] showed an IC50 [3] of over 10000 nM.
For `O=C1C[C@@H](c2cc(F)c(F)cc2F)[C@H](COc2cc(F)c(S(=O)(=O)Nc3ncns3)cc2F)CN1` (relative stereo) [Example 101, 2,5-difluoro-4-((trans-6-oxo-4-(2,4,5-trifluorophenyl)piperidin-3-yl)methoxy)-N-(1,2,4-thiadiazol-5-yl)benzenesulfonamide], the IC50 [3] was 4490 nM.
`CC(=O)NS(=O)(=O)c1cc(F)c(OC[C@@H]2CNCC[C@H]2c2ccc(Cl)cc2)cc1F` (relative stereo) [Example 102, N-((4-((trans-4-(4-chlorophenyl)piperidin-3-yl)methoxy)-2,5-difluorophenyl)sulfonyl)acetamide] showed an IC50 [3] of over 10000 nM.
In the case of `O=C(NS(=O)(=O)c1cc(F)c(OC[C@@H]2CNCC[C@H]2c2ccc(Cl)cc2)cc1F)c1cccnc1` (relative stereo) [Example 103, N-((4-((trans-4-(4-chlorophenyl)piperidin-3-yl)methoxy)-2,5-difluorophenyl)sulfonyl)nicotinamide], the IC50 [3] is reported as over 10000 nM.
`O=C(NS(=O)(=O)c1cc(F)c(OC[C@@H]2CNCC[C@H]2c2ccc(Cl)cc2)cc1F)c1ccccc1` (relative stereo) [Example 104, N-((4-((trans-4-(4-chlorophenyl)piperidin-3-yl)methoxy)-2,5-difluorophenyl)sulfonyl)benzamide] gave an IC50 [3] of over 10000 nM.
Work on `CC(C)NC(=O)NS(=O)(=O)c1cc(F)c(OC[C@@H]2CNCC[C@H]2c2ccc(Cl)cc2)cc1F` (relative stereo) [Example 105, 4-((trans-4-(4-chlorophenyl)piperidin-3-yl)methoxy)-2,5-difluoro-N-(isopropylcarbamoyl)benzenesulfonamide] yielded an IC50 [3] of over 10000 nM.
`O=S(=O)(Nc1ncns1)c1cc(F)c(OC[C@@H]2CNCC[C@H]2c2ccc(F)cc2)cc1F` [Example 46, 2,5-difluoro-4-(((3S,4R)-4-(4-fluorophenyl)piperidin-3-yl)methoxy)-N-(1,2,4-thiadiazol-5-yl)benzenesulfonamide] was tested, and the IC50 ([2]; read-out: NaV1.7 (IC50 class)) was 100 to 1000 nM and the IC50 ([2]; read-out: NaV1.7 IC50) was 928 nM.
With `O=S(=O)(Nc1ncns1)c1cc(F)c(OC[C@H]2CNCC[C@@H]2c2ccc(Cl)cc2)cc1F` [Example 77, 4-(((3R,4S)-4-(4-chlorophenyl)piperidin-3-yl)methoxy)-2,5-difluoro-N-(1,2,4-thiadiazol-5-yl)benzenesulfonamide] the IC50 ([2]; read-out: NaV1.7 (IC50 class)) was under 100 nM and the IC50 ([2]; read-out: NaV1.7 IC50) was 1.1 nM.
`O=S(=O)(Nc1ncns1)c1cc(F)c(OC[C@@H]2CNCC[C@H]2c2ccc(Cl)cc2)cc1F` [Example 84, 4-(((3S,4R)-4-(4-chlorophenyl)piperidin-3-yl)methoxy)-2,5-difluoro-N-(1,2,4-thiadiazol-5-yl)benzenesulfonamide] was tested, and the IC50 ([2]; read-out: NaV1.7 (IC50 class)) was under 100 nM.
